From the supplement of paper PMC10949913

Tests used:
Settings in all cases: 48 h
CU-ACC1 [1] = experiment: AC50 viability; higher = less potent
How it was run: (§1)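 Library compounds were tested at 11 concentrations against three adrenocortical carcinoma cell lines in 1,536-well plates. CellTiter-Glo luminescence was read after 48 h and normalised per plate to vehicle and empty-well controls. Only inhibitory or non-responding curve classes from fitted concentration-response curves contributed AC50 and area under the curve.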

NCI-H295R [2] = experiment: AC50 viability; higher = less potent
How it was run: as §1

CU-ACC1 [3] = experiment: area under concentration-response curve (viability) (AUC (a.u.)); higher = less active
How it was run: as §1

CU-ACC2 = experiment: as above
How it was run: as §1

NCI-H295R [4] = experiment: as above
How it was run: as §1

Row | Compound | AC50 viability (CU-ACC1 [1]) [nM] | AC50 viability (NCI-H295R [2]) [nM] | area under concentration-response curve (CU-ACC1 [3]) | area under concentration-response curve (CU-ACC2) | area under concentration-response curve (NCI-H295R [4])
1 | Cn1c(=O)n(-c2ccc(C(C)(C)C#N)cc2)c2c3cc(-c4cnc5ccccc5c4)ccc3ncc21 | 108 | 171 | 471 | 623 | 510
2 | CC(=O)Nc1cc(Oc2ccc3c(nc(Nc4ccc(F)cc4F)n3C)c2C)ccn1 | 18600 | 11800 | 484 | 544 | 482
3 | Fc1ccc(-c2csc3ncnc(NCc4ccc5c(c4)OCO5)c23)cc1 | 3320 | 20900 | 390 | 532 | 427
4 | CC1=C(C)C2=C(S1)[N]3C(=NN=C3[C@H](CC(=O)OC(C)(C)C)/N=C2/C4=CC=C(Cl)C=C4)C | 18600 | 16600 | 432 | 553 | 520
5 | Cc1nnn(C)c1-c1cnc2c3ccc(C(C)(C)O)cc3n([C@H](c3ccccc3)C3CCOCC3)c2c1 | 468 | 16.6 | 416 | 482 | 425
6 | O=C(NCCCNC(=O)c1cccnc1O)c1cc(-c2ccccc2)on1 | 20900 | 18600 | 481 | 574 | 443
7 | CNC(=O)Nc1ccc(-c2nc(N3CC4CCC(C3)O4)c3cnn(C4CCC5(CC4)OCCO5)c3n2)cc1 | 148 | 1050 | 404 | 520 | 455
8 | Cc1cccc(CN2CCN(C(c3ccccc3)c3ccc(Cl)cc3)CC2)c1 (stereo not given) | 13200 | 16600 | 422 | 534 | 495
9 | CC1=C(C)C\2=C(S1)[N]3C(=NN=C3[C@H](CC(=O)NC4=CC=C(OCCOCCOCCOCCNC5=CC=CC6=C5C(=O)N(C7CCC(=O)NC7=O)C6=O)C=C4)\N=C2C8=CC=C(Cl)C=C8)C (stereo not given in full) | 417 | 1860 | 443 | 484 | 457
10 | C[C@@H]1O[C@@H](O[C@@H]2C=C3CC[C@@H]4[C@H](CC[C@]5(C)[C@@H](c6ccc(=O)oc6)CC[C@]45O)[C@@]3(C)CC2)[C@H](O)[C@H](O)[C@H]1O | 14.8 | 33.2 | 219 | 307 | 277
11 | C/C(=N\Nc1nnc2c(n1)[nH]c1c(C)cccc12)c1ccccn1 | 2350 | 9340 | 403 | 533 | 415
12 | C[C@H]1O[C@H](C[C@H](O)[C@@H]1O)O[C@H]2[C@@H](O)C[C@@H](O[C@@H]2C)O[C@H]3[C@@H](O)C[C@@H](O[C@@H]3C)O[C@H]4CC[C@@]5(C)[C@H](CC[C@@H]6[C@@H]5C[C@@H](O)[C@]7(C)[C@H](CC[C@]67O)C/8=C/C(=O)OC8)C4 | 37.2 | 118 | 255 | 349 | 269
13 | CCC[C@H](NC(=O)[C@@H]1[C@H]2CCC[C@H]2CN1C(=O)[C@@H](NC(=O)[C@@H](NC(=O)c1cnccn1)C1CCCCC1)C(C)(C)C)C(=O)C(=O)NC1CC1 | 1.05 | 33200 | 333 | 299 | 285
14 | COc1ccc(C[C@@H](C)[C@@H](C)Cc2ccc(OC)c(OC)c2)cc1OC | 4680 | 20900 | 452 | 536 | 480
15 | NC1=NC=C(C=C1)C2=CC=C3N=CC\4=C(N(C(=O)\C=C4)C5=CC(=CC=C5)C(F)(F)F)C3=C2 | 235 | 83.3 | 314 | 387 | 294
